In patent US20260198493A1, “HYDRAZIDE COMPOUND AND AGRICULTURAL/HORTICULTURAL FUNGICIDE” (Nippon Soda Co., Ltd., priority 2022, published 2026):

How the values were obtained:
[1] = system: Erysiphe graminis f.sp.tritici; experiment: Control test of wheat powdery mildew disease (sprayed young wheat seedlings); type: in vivo; details: Blumeria graminis, 144 h, 125 ppm by mass spray, six days after inoculation
Text: [formula] […] Then, the drug liquid was sprayed onto young wheat seedlings cultivated in a nursery pot (variety “Chihoku”, one-to two-leaf stage), and then air-dried. Thereafter, conidiospores of fungi causing wheat powdery mildew disease (Erysiphe graminis f.sp.tritici) were sprinkled on the young wheat seedlings to inoculate them (treated area). As a control, the conidiospores of fungi causing wheat powdery mildew disease (Erysiphe graminis f.sp.tritici) were sprinkled on young wheat seedlings unsprayed with the drug liquid (untreated area). They were left still in a greenhouse at 20° C. Six days after inoculation, leaves of young wheat seedlings were visually observed, and the lesion area ratio was determined to calculate the control value in a similar manner to the previous test.

Venturia inaequalis = experiment: Control test of apple scab disease (sprayed young apple seedlings); type: in vivo; details: 125 ppm by mass spray, 12 to 14 days after inoculation
Description: [formula] […] Then, the drug liquid was sprayed onto young apple seedlings cultivated in a nursery pot (variety “Orin”, three-to four-leaf stage), and then air-dried. Thereafter, conidiospores of fungi causing apple scab disease (Venturia inaequalis) were inoculated thereon (treated area). As a control, the conidiospores were inoculated in a similar manner to the above on young apple seedlings unsprayed with the drug liquid (untreated area). They were left still at 20° C. in a moist room with light and dark cycles repeated every 12 hours. 12 Days to 14 days after inoculation, leaves of young apple seedlings were visually observed, and the control value was calculated from the lesion area ratio in accordance with the equation used in the control test of cucumber gray mold.

Botrytis cinerea [2] = experiment: Control test of cucumber gray mold (sprayed young cucumber seedlings); type: in vivo; details: 96 h, four days after inoculation; for pest or weed control at 25 ppm: 25 ppm by mass spray; for pest or weed control at 125 ppm: 125 ppm by mass spray
Description: Then, the drug liquid was sprayed onto young cucumber seedlings cultivated in a nursery pot (variety “Jihai”-based, cotyledon stage), and then air-dried. […] They were left still in a moist room at 20° C. Four days after inoculation, leaves of the young cucumber seedlings were visually observed, and the control value was calculated from the lesion area ratio in accordance with the following equation. [formula]

Colletotrichum acutatum = experiment: Fungicidal effect test against fungi causing apple anthracnose; details: 96 h, read-out: growth inhibition ratio
Glomerella cingulata = experiment: Fungicidal effect test against fungi causing grape ripe rot disease; details: Colletotrichum gloeosporioides, 72 h, read-out: growth inhibition ratio
Botrytis cinerea [3] = type: cell-based; details: 120 h, 25 ppm by volume, Vogel medium, 20° C., five days, dark, read-out: growth inhibition ratio

CC(=O)N(Cc1ccc(C)cc1C)NC(=O)c1cc(C)ncc1Oc1cccc(C2CC2)c1F [b-9, N′-acetyl-5-(3-cyclopropyl-2-fluorophenoxy)-N′-(2,4-dimethylbenzyl)-2-methylisonicotinohydrazide]
≥ 75%: pest or weed control at 125 ppm [1] | pest or weed control at 125 ppm (Venturia inaequalis) | pest or weed control at 25 ppm (Botrytis cinerea [2]) | pest or weed control at 125 ppm (Botrytis cinerea [2]) | inhibition of growth at 25 ppm (Colletotrichum acutatum) | inhibition of growth at 25 ppm (Glomerella cingulata) | inhibition of growth at 25 ppm (Botrytis cinerea [3])

COC(=O)N(Cc1ccc(C2CC2)cc1)NC(=O)c1cc(C)nnc1Oc1cccc(C2CC2)c1F [b-163]
≥ 75%: pest or weed control at 125 ppm [1] | pest or weed control at 125 ppm (Venturia inaequalis) | pest or weed control at 25 ppm (Botrytis cinerea [2]) | pest or weed control at 125 ppm (Botrytis cinerea [2]) | inhibition of growth at 25 ppm (Colletotrichum acutatum) | inhibition of growth at 25 ppm (Glomerella cingulata) | inhibition of growth at 25 ppm (Botrytis cinerea [3])

COC(=O)N(Cc1ccccc1C)NC(=O)c1cc(C)nnc1Oc1cccc(C2CC2)c1F [b-103]
≥ 75%: pest or weed control at 125 ppm [1] | pest or weed control at 125 ppm (Venturia inaequalis) | pest or weed control at 25 ppm (Botrytis cinerea [2]) | pest or weed control at 125 ppm (Botrytis cinerea [2]) | inhibition of growth at 25 ppm (Colletotrichum acutatum) | inhibition of growth at 25 ppm (Glomerella cingulata) | inhibition of growth at 25 ppm (Botrytis cinerea [3])

CCOC(=O)N(Cc1ccc(C)cc1C)NC(=O)c1cc(C)nnc1Oc1cccc(C2CC2)c1F [b-21]
≥ 75%: pest or weed control at 125 ppm [1] | pest or weed control at 125 ppm (Venturia inaequalis) | pest or weed control at 25 ppm (Botrytis cinerea [2]) | pest or weed control at 125 ppm (Botrytis cinerea [2]) | inhibition of growth at 25 ppm (Colletotrichum acutatum) | inhibition of growth at 25 ppm (Glomerella cingulata) | inhibition of growth at 25 ppm (Botrytis cinerea [3])

Cc1ccc(CN(NC(=O)c2cc(C)nnc2Oc2cccc(C3CC3)c2F)C(=O)OCc2ccccc2)c(C)c1 [b-182]
≥ 75%: pest or weed control at 125 ppm [1] | pest or weed control at 125 ppm (Venturia inaequalis) | pest or weed control at 25 ppm (Botrytis cinerea [2]) | pest or weed control at 125 ppm (Botrytis cinerea [2]) | inhibition of growth at 25 ppm (Colletotrichum acutatum) | inhibition of growth at 25 ppm (Glomerella cingulata) | inhibition of growth at 25 ppm (Botrytis cinerea [3])

CC(=S)N(Cc1ccc(C)cc1C)NC(=O)c1cc(C)nnc1Oc1cccc(C2CC2)c1F [b-66, 3-(3-Cyclopropyl-2-fluorophenoxy)-N′-(2,4-dimethylbenzyl)-N′-ethanethioyl-6-methylpyridazine-4-carbohydrazide]
≥ 75%: pest or weed control at 125 ppm [1] | pest or weed control at 125 ppm (Venturia inaequalis) | pest or weed control at 25 ppm (Botrytis cinerea [2]) | pest or weed control at 125 ppm (Botrytis cinerea [2]) | inhibition of growth at 25 ppm (Colletotrichum acutatum) | inhibition of growth at 25 ppm (Glomerella cingulata) | inhibition of growth at 25 ppm (Botrytis cinerea [3])

COC(=O)N(Cc1ccc(C)c(C)c1)NC(=O)c1cc(C)nnc1Oc1cccc(C2CC2)c1F [b-29]
≥ 75%: pest or weed control at 125 ppm [1] | pest or weed control at 125 ppm (Venturia inaequalis) | pest or weed control at 25 ppm (Botrytis cinerea [2]) | pest or weed control at 125 ppm (Botrytis cinerea [2]) | inhibition of growth at 25 ppm (Colletotrichum acutatum) | inhibition of growth at 25 ppm (Glomerella cingulata) | inhibition of growth at 25 ppm (Botrytis cinerea [3])

CC(=O)N(Cc1ccc(C)cc1C)NC(=O)c1cc(C)nnc1Oc1cccc(C2CC2)c1F [b-5, N′-acetyl-3-(3-cyclopropyl-2-fluorophenoxy)-N′-(2,4-dimethylbenzyl)-6-methylpyridazine-4-carbohydrazide]
≥ 75%: pest or weed control at 125 ppm [1] | pest or weed control at 125 ppm (Venturia inaequalis) | pest or weed control at 25 ppm (Botrytis cinerea [2]) | pest or weed control at 125 ppm (Botrytis cinerea [2]) | inhibition of growth at 25 ppm (Colletotrichum acutatum) | inhibition of growth at 25 ppm (Glomerella cingulata) | inhibition of growth at 25 ppm (Botrytis cinerea [3])

COC(=O)N(Cc1ccc(C(F)(F)F)cc1C)NC(=O)c1cc(C)nnc1Oc1cccc(C2CC2)c1F [b-109]
≥ 75%: pest or weed control at 125 ppm [1] | pest or weed control at 125 ppm (Venturia inaequalis) | pest or weed control at 25 ppm (Botrytis cinerea [2]) | pest or weed control at 125 ppm (Botrytis cinerea [2]) | inhibition of growth at 25 ppm (Colletotrichum acutatum) | inhibition of growth at 25 ppm (Glomerella cingulata) | inhibition of growth at 25 ppm (Botrytis cinerea [3])

COC(=O)N(Cc1ccc(C)cc1C)NC(=O)c1cc(C)nnc1Oc1cccc(Br)c1Cl [b-68]
≥ 75%: pest or weed control at 125 ppm [1] | pest or weed control at 125 ppm (Venturia inaequalis) | pest or weed control at 125 ppm (Botrytis cinerea [2]) | inhibition of growth at 25 ppm (Colletotrichum acutatum) | inhibition of growth at 25 ppm (Glomerella cingulata) | inhibition of growth at 25 ppm (Botrytis cinerea [3])

Cc1ccc(CN(NC(=O)c2cc(C)nnc2Oc2cccc(C3CC3)c2F)C(=O)C2CC2)c(C)c1 [b-25]
≥ 75%: pest or weed control at 125 ppm [1] | pest or weed control at 125 ppm (Venturia inaequalis) | pest or weed control at 25 ppm (Botrytis cinerea [2]) | pest or weed control at 125 ppm (Botrytis cinerea [2]) | inhibition of growth at 25 ppm (Colletotrichum acutatum) | inhibition of growth at 25 ppm (Glomerella cingulata) | inhibition of growth at 25 ppm (Botrytis cinerea [3])

COC(=O)N(Cc1ccc(Cl)cc1Cl)NC(=O)c1cc(C)nnc1Oc1cccc(C2CC2)c1F [b-57]
≥ 75%: pest or weed control at 125 ppm [1] | pest or weed control at 125 ppm (Venturia inaequalis) | pest or weed control at 125 ppm (Botrytis cinerea [2]) | inhibition of growth at 25 ppm (Colletotrichum acutatum) | inhibition of growth at 25 ppm (Glomerella cingulata) | inhibition of growth at 25 ppm (Botrytis cinerea [3])

COC(=O)N(Cc1ccc(OC)cc1C)NC(=O)c1cc(C)nnc1Oc1cccc(C2CC2)c1F [b-44]
≥ 75%: pest or weed control at 125 ppm [1] | pest or weed control at 125 ppm (Venturia inaequalis) | pest or weed control at 25 ppm (Botrytis cinerea [2]) | pest or weed control at 125 ppm (Botrytis cinerea [2]) | inhibition of growth at 25 ppm (Colletotrichum acutatum) | inhibition of growth at 25 ppm (Glomerella cingulata) | inhibition of growth at 25 ppm (Botrytis cinerea [3])

CCCC(=O)N(Cc1ccc(C)cc1C)NC(=O)c1cc(C)nnc1Oc1cccc(C2CC2)c1F [b-20]
≥ 75%: pest or weed control at 125 ppm [1] | pest or weed control at 125 ppm (Venturia inaequalis) | pest or weed control at 125 ppm (Botrytis cinerea [2]) | inhibition of growth at 25 ppm (Colletotrichum acutatum) | inhibition of growth at 25 ppm (Glomerella cingulata) | inhibition of growth at 25 ppm (Botrytis cinerea [3])

COC(=O)N(Cc1ccc(C)cc1C)NC(=O)c1cc(C)nnc1Oc1cccc(I)c1 [b-114]
≥ 75%: pest or weed control at 125 ppm [1] | pest or weed control at 125 ppm (Venturia inaequalis) | pest or weed control at 125 ppm (Botrytis cinerea [2]) | inhibition of growth at 25 ppm (Colletotrichum acutatum) | inhibition of growth at 25 ppm (Glomerella cingulata) | inhibition of growth at 25 ppm (Botrytis cinerea [3])

COC(=O)N(Cc1ccc(OC)cc1C)NC(=O)c1ccncc1Oc1cccc(C2CC2)c1F [b-151]
≥ 75%: pest or weed control at 125 ppm [1] | pest or weed control at 125 ppm (Venturia inaequalis) | pest or weed control at 25 ppm (Botrytis cinerea [2]) | pest or weed control at 125 ppm (Botrytis cinerea [2]) | inhibition of growth at 25 ppm (Colletotrichum acutatum) | inhibition of growth at 25 ppm (Glomerella cingulata) | inhibition of growth at 25 ppm (Botrytis cinerea [3])

COC(=O)N(Cc1cccc(C)c1)NC(=O)c1cc(C)nnc1Oc1cccc(C2CC2)c1F [b-159]
≥ 75%: pest or weed control at 125 ppm [1] | pest or weed control at 125 ppm (Venturia inaequalis) | pest or weed control at 25 ppm (Botrytis cinerea [2]) | pest or weed control at 125 ppm (Botrytis cinerea [2]) | inhibition of growth at 25 ppm (Colletotrichum acutatum) | inhibition of growth at 25 ppm (Glomerella cingulata) | inhibition of growth at 25 ppm (Botrytis cinerea [3])

COC(=O)N(Cc1ccc(C)cc1C)NC(=O)c1ccnnc1Oc1cccc(Cl)c1F [b-190]
≥ 75%: pest or weed control at 125 ppm [1] | pest or weed control at 125 ppm (Venturia inaequalis) | pest or weed control at 25 ppm (Botrytis cinerea [2]) | pest or weed control at 125 ppm (Botrytis cinerea [2]) | inhibition of growth at 25 ppm (Colletotrichum acutatum) | inhibition of growth at 25 ppm (Glomerella cingulata) | inhibition of growth at 25 ppm (Botrytis cinerea [3])

COC(=O)N(Cc1ccc(OC)cc1C)NC(=O)c1c(C)cnnc1Oc1cccc(C2CC2)c1F [b-192]
≥ 75%: pest or weed control at 125 ppm [1] | pest or weed control at 125 ppm (Venturia inaequalis) | pest or weed control at 25 ppm (Botrytis cinerea [2]) | pest or weed control at 125 ppm (Botrytis cinerea [2]) | inhibition of growth at 25 ppm (Colletotrichum acutatum) | inhibition of growth at 25 ppm (Glomerella cingulata) | inhibition of growth at 25 ppm (Botrytis cinerea [3])

COC(=O)N(Cc1ccc(OC)cc1C)NC(=O)c1c(Cl)cncc1Oc1cccc(C2CC2)c1F [b-206]
≥ 75%: pest or weed control at 125 ppm [1] | pest or weed control at 125 ppm (Venturia inaequalis) | pest or weed control at 25 ppm (Botrytis cinerea [2]) | pest or weed control at 125 ppm (Botrytis cinerea [2]) | inhibition of growth at 25 ppm (Colletotrichum acutatum) | inhibition of growth at 25 ppm (Glomerella cingulata) | inhibition of growth at 25 ppm (Botrytis cinerea [3])

COC(=O)N(Cc1ccc(C)cc1C)NC(=O)c1cc(Cl)nnc1Oc1ccc2c(c1)OCO2 [b-81]
≥ 75%: pest or weed control at 125 ppm [1] | pest or weed control at 125 ppm (Venturia inaequalis) | pest or weed control at 125 ppm (Botrytis cinerea [2]) | inhibition of growth at 25 ppm (Colletotrichum acutatum) | inhibition of growth at 25 ppm (Glomerella cingulata) | inhibition of growth at 25 ppm (Botrytis cinerea [3])

COC(=O)N(Cc1ccc(C)cc1C)NC(=O)c1cc(C)nnc1Oc1cccc(OC)c1F [b-52]
≥ 75%: pest or weed control at 125 ppm [1] | pest or weed control at 125 ppm (Venturia inaequalis) | pest or weed control at 25 ppm (Botrytis cinerea [2]) | pest or weed control at 125 ppm (Botrytis cinerea [2]) | inhibition of growth at 25 ppm (Colletotrichum acutatum) | inhibition of growth at 25 ppm (Glomerella cingulata) | inhibition of growth at 25 ppm (Botrytis cinerea [3])

COC(=O)N(Cc1ccc(OC)cc1OC)NC(=O)c1cc(C)nnc1Oc1cccc(C2CC2)c1F [b-83]
≥ 75%: pest or weed control at 125 ppm [1] | pest or weed control at 125 ppm (Venturia inaequalis) | pest or weed control at 125 ppm (Botrytis cinerea [2]) | inhibition of growth at 25 ppm (Colletotrichum acutatum) | inhibition of growth at 25 ppm (Glomerella cingulata) | inhibition of growth at 25 ppm (Botrytis cinerea [3])

COCOc1ccc(CN(NC(=O)c2cc(C)nnc2Oc2cccc(C3CC3)c2F)C(=O)OC)c(C)c1 [b-30]
≥ 75%: pest or weed control at 125 ppm [1] | pest or weed control at 125 ppm (Venturia inaequalis) | pest or weed control at 25 ppm (Botrytis cinerea [2]) | pest or weed control at 125 ppm (Botrytis cinerea [2]) | inhibition of growth at 25 ppm (Colletotrichum acutatum) | inhibition of growth at 25 ppm (Glomerella cingulata) | inhibition of growth at 25 ppm (Botrytis cinerea [3])
